From PubChem BioAssay (NCI)
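Cells were grown in 96-well plates and exposed to each compound for 48 hours at five concentrations; endpoints were interpolated linearly between bracketing concentrations, or set to the highest concentration if not reached. At the GI50, growth is halved. TGI denotes the concentration required for complete inhibition of growth.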

Assays:
Experiment in all cases: DTP human tumour cell line panel, 48 h
A549 NSCLC = system: A549 NSCLC
CAKI-1 renal = system: CAKI-1 renal
EKVX NSCLC = system: EKVX NSCLC
OVCAR-3 ovarian = system: OVCAR-3 ovarian
OVCAR-5 ovarian = system: OVCAR-5 ovarian
RPMI-8226 leukemia = system: RPMI-8226 leukemia
SF-295 CNS = system: SF-295 CNS
SN12C renal = system: SN12C renal
UACC-62 melanoma = system: UACC-62 melanoma
HCC-2998 colon = system: HCC-2998 colon

| Structure (SMILES) | TGI (A549 NSCLC) | TGI (CAKI-1 renal) | TGI (EKVX NSCLC) | TGI (OVCAR-3 ovarian) | TGI (OVCAR-5 ovarian) | TGI (RPMI-8226 leukemia) | TGI (SF-295 CNS) | TGI (SN12C renal) | TGI (UACC-62 melanoma) | TGI (HCC-2998 colon) | GI50 (A549 NSCLC) | GI50 (CAKI-1 renal) | GI50 (HCC-2998 colon) | GI50 (OVCAR-3 ovarian) | GI50 (OVCAR-5 ovarian) | GI50 (RPMI-8226 leukemia) | GI50 (SF-295 CNS) | GI50 (SN12C renal) | GI50 (UACC-62 melanoma) | GI50 (EKVX NSCLC) |
| --- | --- | --- | --- | --- | --- | --- | --- | --- | --- | --- | --- | --- | --- | --- | --- | --- | --- | --- | --- | --- |
| NC(N)=NC(CC(=O)O)c1ccccc1 (stereo not drawn) | > 100 µM | > 100 µM | > 100 µM | > 100 µM | > 100 µM | > 100 µM | > 100 µM | > 100 µM | > 100 µM | – | – | – | – | – | – | – | – | – | – | – |
| O/N=C1/C(=C/c2ccc(F)cc2)CCCC1C(NO)c1ccc(F)cc1 (stereo not drawn) | > 100 µM | > 100 µM | > 100 µM | 72.8 µM | – | 49.8 µM | > 100 µM | 43.6 µM | > 100 µM | > 100 µM | – | – | – | – | – | – | – | – | – | – |
| C/C(=N\N(C)C)c1sc(-n2nc(-c3ccccc3)cc2-c2ccccc2)nc1C | > 100 µM | > 100 µM | > 100 µM | > 100 µM | 82.4 µM | – | > 100 µM | > 100 µM | > 100 µM | > 100 µM | – | – | – | – | – | – | – | – | – | – |
| CC1(C)N=C(N)N=C(N)N1c1cccc(/C=C/C=C/c2cccc([N+](=O)[O-])c2)c1 | 24 µM | > 100 µM | – | 13.1 µM | 42.5 µM | 16.3 µM | 28.3 µM | 20.1 µM | 17.9 µM | 18.5 µM | 3.9 µM | 75.3 µM | 4.71 µM | 1.89 µM | 10.5 µM | 1.31 µM | 10.3 µM | 5.3 µM | 3.74 µM | – |
| COc1ccc(-c2oc3cc(O)c(OC)c(O)c3c(=O)c2OC2OC(CO)C(O)C(O)C2O)cc1 (stereo not drawn) | > 100 µM | – | > 100 µM | > 100 µM | – | > 100 µM | > 100 µM | > 100 µM | > 100 µM | > 100 µM | – | – | – | – | – | – | – | – | – | – |
| O=S(=O)(c1ccc(NC(=S)N/N=C/c2ccccc2O)cc1)N1CCCCC1 | > 31.7 µM | 0.671 µM | 76.2 µM | 6.34 µM | 18.3 µM | 8.17 µM | 3.45 µM | 3.92 µM | 0.262 µM | – | – | – | – | – | – | – | – | – | – | – |
| Cc1ccc(-c2c(C#N)c(N)nc(N3CCOCC3)c2C#N)o1 | > 100 µM | – | > 100 µM | – | > 100 µM | > 100 µM | – | > 100 µM | > 100 µM | – | 57.1 µM | – | – | – | 27.4 µM | 49.8 µM | – | 41.6 µM | 39 µM | 21.2 µM |
| Cc1cc2c(C)c3cc(C)c(N)cc3nc2cc1N | 3.16 µM | 8.66 µM | – | 5.35 µM | 5.34 µM | 5.92 µM | 4.87 µM | 9.71 µM | 3.58 µM | 4.91 µM | 0.636 µM | 2.03 µM | 1.12 µM | 1.18 µM | 0.884 µM | 1.33 µM | 0.909 µM | 0.987 µM | 0.998 µM | – |
| COc1cc[nH]c1/C=C1\C(=O)Nc2ccc(F)c(C#C[C@@H](O)[C@@H](N)[C@@H](C)O)c21 | 3.13 µM | 5.73 µM | – | 2.26 µM | 5.14 µM | 1.83 µM | 3.44 µM | 8.38 µM | 0.853 µM | 2.64 µM | 0.681 µM | 0.415 µM | 0.727 µM | 0.685 µM | 0.673 µM | 0.683 µM | 0.689 µM | 0.51 µM | 0.277 µM | – |
| CC(=O)c1ccc(Nc2cc(-n3ccnc3)nc3ccccc23)cc1 | > 100 µM | 7.57 µM | > 100 µM | – | > 100 µM | 9.84 µM | 9.53 µM | > 100 µM | 92.8 µM | > 100 µM | 35.3 µM | 1.71 µM | > 100 µM | – | > 100 µM | 3.24 µM | 2.8 µM | 45.8 µM | 19.2 µM | > 100 µM |
| OB([O][Hg][c]1ccccc1)[O][Hg][c]1ccccc1 | 4.64 µM | 2.01 µM | – | 0.213 µM | 3.33 µM | 0.592 µM | 3.17 µM | 0.799 µM | 1.69 µM | 3.36 µM | 1.83 µM | 0.639 µM | 1.86 µM | 0.0812 µM | 1.88 µM | 0.211 µM | 1.6 µM | 0.266 µM | 0.454 µM | – |
| Cn1nc(-c2ccccc2NC(=O)C(F)(F)F)c(=O)n(C)c1=S | > 100 µM | 89.4 µM | 86.5 µM | 40.6 µM | > 100 µM | – | > 100 µM | > 100 µM | – | > 100 µM | – | – | – | – | – | – | – | – | – | – |
| ClC(=Nc1cccc2ccccc12)N(c1ccccc1)c1ccccc1 | > 100 µM | > 100 µM | – | > 100 µM | > 100 µM | 89.3 µM | > 100 µM | > 100 µM | > 100 µM | 54.8 µM | – | – | – | – | – | – | – | – | – | – |
| CCOC(=O)Cc1c(Cc2[nH]c(C(=O)OCc3ccccc3)c(CC(=O)OCC)c2CC(=O)OCC)[nH]c(C(=O)OCc2ccccc2)c1CC(=O)OCC | > 100 µM | > 100 µM | – | > 100 µM | – | > 100 µM | > 100 µM | > 100 µM | > 100 µM | – | – | – | – | – | – | – | – | – | – | – |
| CC(=O)[CH-]C(=O)c1ccccc1.CC(=O)[CH-]C(=O)c1ccccc1.CCN(CC)CC[O-].CCN(CC)CC[O-].Cl.[Ti+4] | 98.6 µM | > 100 µM | – | > 100 µM | > 100 µM | > 100 µM | 86.7 µM | > 100 µM | 91.6 µM | 76.6 µM | 27.9 µM | 40.1 µM | 23.1 µM | 28.3 µM | 59.6 µM | 38.3 µM | 37.9 µM | 39.5 µM | 36 µM | – |
| Cc1cc(NC(=O)C2c3ccccc3C(=O)N(CC(C)C)C2c2cccs2)no1 (stereo not drawn) | > 100 µM | > 100 µM | – | > 100 µM | > 100 µM | > 100 µM | > 100 µM | > 100 µM | > 100 µM | > 100 µM | > 100 µM | 25.6 µM | > 100 µM | 90.1 µM | > 100 µM | 45.5 µM | 29 µM | > 100 µM | 86 µM | – |
| C=C(c1ccccc1N)[C@@]1(O)C[C@H](/C(=C\C)CO)C[C@@H]1NCc1ccccc1 | > 100 µM | – | > 100 µM | 45.8 µM | – | 42.5 µM | 30.5 µM | > 100 µM | > 100 µM | 30.9 µM | – | – | – | – | – | – | – | – | – | – |
| CC(=O)Oc1c(C)n(CCCl)ccc1=O | > 100 µM | > 100 µM | > 100 µM | > 100 µM | > 100 µM | > 100 µM | > 100 µM | > 100 µM | > 100 µM | – | – | – | – | – | – | – | – | – | – | – |
